The text below walks through data of article PMC7026080, “Phenotypic high-throughput screening platform identifies novel chemotypes for necroptosis inhibition” (Cell Death Discovery, 2020).

One may read the Papp A→B as how fast a substance crosses the layer from the apical side. Higher therefore signals fast passage. As a reminder, the Papp B→A is the apparent permeability from the basolateral to the apical side of a cell layer. One may read the AUC as concentration integrated over time. As usually defined, the Cmax is the highest concentration seen after dosing. For orientation: clearance means a measure of how efficiently the substance is removed, as volume per time. What is called Tmax is the time from dosing to the highest level. The term efflux ratio denotes the permeability from basolateral to apical divided by that in the opposite direction, in the common usage.

Where two headings read alike, the source gives them in different places.

Series [1] in a line: MDCK-MDR1 cell-based permeability assay. As to conditions: dog. The format is in vitro ADME.
Another series relates to L929 cells. Nature of the series: Necroptosis inhibition in L929 cells + mTNF-α, 8 h, AK release. The format is cell-based, murine. As to conditions: for EC50: Mus musculus, L929. As for the experimental part:
A total of 251,328 small-molecule compounds were screened in L929 cells incubated with mTNF-α alone or together with test compounds at 31.7 μM for 8 h. Intraplate controls for data normalization consisted of untreated cell wells. L929 cells co-incubated with mTNF-α and SN-2668/Nec-1 served as positive controls (Fig. S2A). […] In HTS step one (primary screening), valid data was obtained for 247,738 compounds, 3353 of which were within the established hit selection criteria, corresponding to a 1.4% hit rate for the full library (Fig. 1a).
(§1) The second screening step aimed to determine the EC50 of selected compounds. L929 and Jurkat FADD^-/- cells were co-incubated with TNF-α and test compounds at 10-point concentration range (0.004–100 μM) for 8 h. Compound-mediated inhibition of necroptosis was assessed through AK release and the EC50 calculated. Jurkat cells were used to validate results in human cells. […] In HTS step two, 4374 compounds (3353 hits from HTS step one plus 1021 near neighbours) were evaluated for potency by dose-response curves. From those, 1,438 hit compounds passed the selection criteria on both cell lines, corresponding to a […] hit rate.
(§2) L929 cells were co-incubated for 8 h with mTNF-α and test compounds at 31.7 μM after which AK release was measured. […] Hit compounds were then evaluated for apoptosis modulation. Further details are provided as Supplementary Information.
(§3) Cell treatments and viability assays. Cells were seeded in 384- or 96-well plates at 1000 or 8000 cells/well (in 12.5 μL or 100 μL final volume), respectively, using a Multidrop^TM Combi Reagent Dispenser (ThermoFisher Scientific). For inducing necroptosis, L929 and Jurkat FADD^-/- cells were incubated with 10 ng/mL mTNF-α and hTNF-α respectively; BV2 cells with 25 µM Z-VAD-FMK, and HT29 cells with 20 ng/mL hTNF-α, 250 nM Smac mimetic BV6 and 10 μM Z-VAD-FMK. Cells were co-incubated in the presence of test compounds at target concentrations for 8 or 24 h. Nec-1 at 29.2 μM was used as positive control. For apoptosis assays, Jurkat E6.1 cells were co-incubated with 0.5 μg/mL CHX and test compounds at target concentrations for 8 h. In cytotoxicity assays, HepG2 and L929 cells were seeded in 96-well plates at 5000 cells/well, in 100 μL final volume. Twenty-four hours after seeding, cells were incubated with test compounds at 50 and 100 μM for additional 24 h.
(§4) Adenylate kinase (AK) and lactate dehydrogenase (LDH) release from damaged cells were measured using the Toxilight BioAssay Kit (Lonza, Basel, Switzerland) and the Cytotoxicity Detection Kit (Roche Diagnostics GmbH, Mannheim, Germany), respectively. Adenosine triphosphate (ATP) metabolism was evaluated using CellTiter-Glo^TM Luminescent Cell Viability Assay (Promega, Madison, WI, USA). Apoptosis was determined by the measurement of caspase-3/-7 activity using the Caspase-Glo® 3/7 Assay (Promega) according to the manufacturer’s instructions. Cellular metabolic activity was measured using CellTiter 96® Aqueous Non-Radioactive Cell Proliferation (MTS) Assay (Promega). Luminescence signal was recorded using a GloMax®-MultiDetection System (Promega) and absorbance with a Model 680 microplate reader (Bio-Rad Laboratories Inc, Hercules, CA, USA).
Primary high-throughput screen. Test compounds were arrayed in 384-well white microtiter plates and screened for their potential as necroptosis inhibitors at 32 μM target concentration. Eight hours after co-incubation of L929 cells with mTNF-α and test compounds, AK release was evaluated. […]

Series [2] is described as follows: Mouse pharmacokinetics, i.v. The following applies: plasma, iv, male C57BL/6J mice, 5 mg/kg i.v.; for AUC: read-out: Mouse AUC (in vivo); for Cmax: read-out: Mouse Cmax (in vivo); for clearance: read-out: Mouse clearance (in vivo) rate; for half-life: read-out: Mouse half-life (in vivo) T1/2 (converted); for Tmax: read-out: Tmax (in vivo). The format is in vivo. As for the experimental part:
Pharmacokinetic measurements. Pharmacokinetic studies were performed in male C57BL/6J mice by Pharmaron (Pharmaron Beijing Co Ltd, Beijing, China). Compound (5 mg/kg body weight) was administered intravenously in vehicle (57% PBS, 32% DMSO, 4% PEG 400, 3% ethanol, 4% Tween 80). Blood samples obtained postdosing were collected in plastic microcentrifuge tubes containing EDTA-K2 and centrifuged at 4000 × g for 5 min to obtain plasma. The concentration of compound in plasma samples was determined using a liquid chromatography-tandem mass spectrometry (LC-MS/MS) method by monitoring transition from m/z 541 to 383 in ESI-positive mode. PK parameters were calculated by non-compartmental model using Phoenix WinNonlin v. 6.1 (Pharsight Corp, Certara, St. Louis, MO, USA).

The next series concerns Jurkat FADD-/- cells. Nature of the series: Necroptosis inhibition in Jurkat FADD-/- cells + TNF-α, 8 h, AK release. The format is cell-based. As to conditions: Homo sapiens. As for the experimental part: as §1, §2
as §3, with “In cytotoxicity assays, HepG2 and L929 cells were seeded in 96-well plates at 5000 cells/well, in 100 μL final volume. Twenty-four hours after seeding, cells were incubated with test compounds at 50 and 100 μM for additional 24 h.” left out
as §4
Primary high-throughput screen. […] Eight hours after co-incubation of L929 cells with mTNF-α and test compounds, AK release was evaluated. […] Eight hours after co-incubation of L929 or Jurkat FADD^-/- cells with TNF-α and test compounds, AK release was evaluated. […]

A short description of series [3]: Caco-2 cell-based permeability assay. The format is in vitro ADME. As to conditions: human. Background: Caco-2 monolayers are a common model of the intestinal barrier.
Where [4] appears, read: 8 h, 10 ng/mL mTNF-α, AK release, screening step 1 as printed, read-out: EC50 L929 + TNF-α (in vitro).
Setting [5] is: read-out: L929 + TNF-α (in vitro) pEC50 (converted).
[6] abbreviates: 8 h, screening step 2, AK release, read-out: EC50 Jurkat FADD(-/-) + TNF-α (in vitro).
Where [7] appears, read: read-out: Jurkat FADD (-/-) (in vitro) pEC50 (converted).

Turning to `CN1C(=O)C(Cc2c[nH]c3ccccc23)NC1=S` (stereo not shown) [Nec-1, necrostatin-1], in series [1], the Papp A→B turned out to be 310 nm/s and the apparent permeability from basolateral to apical (Papp B→A) was 340 nm/s. In the series on L929 cells (DMSO = 0, no addition = −100, L929, 10 ng/mL mTNF-α, 8 h, Nec-1 at 29.2 μM), the Membrane integrity is listed as > −100 percentage of control. Moreover, the EC50 in the series with L929 cells (setting [4]) was found to be 1.25 µM. Besides, the EC50 in the series with L929 cells (setting [5]) is 1.26 µM. Besides, in series [2], the AUC is 3210 nM·h, the peak concentration (Cmax) amounted to 11.3 µM, the clearance was found to be 6.06 L/h/kg and the half-life was 26.4 min. In series [2], the Tmax worked out at 1.8 min. In addition, the EC50 in the series with Jurkat FADD-/- cells (setting [6]) amounted to 0.39 µM. Further, in the series with Jurkat FADD-/- cells (setting [7]), the EC50 is 0.398 µM. Also, in series [3], the efflux ratio came out at 0.36, the Papp A→B stood at 380 nm/s and the Papp B→A was 140 nm/s.
In series [1], `O=C(c1cnn(Cc2ccccc2)c1)N1CCOc2ccccc2C1` [SN-6109] registered a Papp A→B of 350 nm/s and a Papp B→A of 180 nm/s. The EC50 in the series on L929 cells (setting [4]) worked out at 6.3 µM. The EC50 in the series on L929 cells (setting [5]) is 6.31 µM. Also, in series [2], the AUC worked out at 2340 nM·h, the Cmax was 10.2 µM, the clearance was found to be 6.42 L/h/kg and the half-life is 18.6 min. Moreover, the Tmax in series [2] stood at 1.8 min. For the same compound, the EC50 in the series on Jurkat FADD-/- cells (setting [6]) came to 0.63 µM. Also, the EC50 in the series on Jurkat FADD-/- cells (setting [7]) is 0.631 µM. Besides, in series [3], the Papp A→B came out at 310 nm/s and the Papp B→A was 160 nm/s.
